Data reported in patent US20160200847A1, “CLICKABLE POLYMERS AND GELS FOR MICROARRAY AND OTHER APPLICATIONS” (priority 2014, published 2016).

Target: T1, Concanavalin A (ConA) (Canavalia ensiformis, UniProt P02866)
T1 construct: purchased Sigma Aldrich
Experiment: Glycan microarray incubated with biotinylated ConA, Cy3-streptavidin fluorescence detection
Format: binding
Settings: spotted at 50 μM; 100 ng/ml (0.943 nM) biotinylated ConA; Cy3-labelled streptavidin
Description: Four hundreds pL of each glycan was spotted at 10 μM or 50 μM concentration from an aqueous solution of […] (2.5 mM) and ascorbic acid (12.5 mM). A α-mannoside (10) and β-galactoside (11) were used as positive and negative controls. The immobilization reaction took place during an overnight incubation in a humid chamber at room temperature. The printed slides were sequentially washed with PBS buffer for 10 minutes with DI water and dried by a nitrogen stream. The arrayed slides were then incubated with biotinylated α-mannose-binding lectin Concanavalin A (ConA) in the lectin binding buffer (LBB, 50 mM HEPES, pH 7.4, 5 mM MnCl2, 5 mM CaCl2) in the presence of BSA (0.2 mg/ml). […] A final incubation of 1 h with 2 μg/ml Cyanine3 labelled Streptavidin in PBS (Phosphate Saline Buffer) in a humid chamber at room temperature under static condition enabled the fluorescence detection of the surface bound ConA by means of a scanner (ProScanArray scanner from Perkin Elmer, Boston, Mass., USA) used at 70% of laser power and 60% of photomultiplier (PMT) gain (FIG. 2b). The fluorescence intensities of 11 spot replicates were confirmed by three experiments that provided the same fluorescence intensities for each glycomimetic, with a standard deviation lower than 5%. […]
The graph (b) of FIG. 2 reports the fluorescence intensity observed for different glycan spots. […]

OC[C@H]1O[C@@H](O)[C@H](O)[C@@H](O)[C@H]1O [Glycomimetic 11, β-galactose]
interaction with ConA (spot fluorescence intensity, qualitative): lack of fluorescence
